Data published in US20220000998A1 (priority 2019, published 2022).
No end group written: not given here.

How the values were obtained:
[1] = mouse, plasma
B3Z T-cells = format: cell-based, murine

| Sequence | half-life [1] | T-cell activation after BMDC incubation with antibody constructs and the peptide (B3Z T-cells) |
| --- | --- | --- |
| FIGITELKKLESKINKVFAVGALKVPRNQDWLGVPRQL [UU-30] | 20 min | – |
| LEQLESIINFEKLAAAAAK [UU-10, reference compound] | – | did not give rise to T-cell activation |
| FIGITELKKLESKINKVFLEQLESIINFEKLAAAAAK [UU-05] | – | resulted in T-cell activation |
